Assay results: US8512748B2, “Controlled release system and method for manufacturing the same” (Boehringer Ingelheim International GmbH, priority 2006, dated 2013)

Assay: pH-dependent aqueous solubility of the active ingredient
Assay type: physicochemical

solubility (pH 2): good solubility | aqueous solubility (pH values 5.5-6.8): poor
Structure (SMILES): O=c1[nH]c2ccccc2n1CCN1CCN(c2cccc(C(F)(F)F)c2)CC1 [active ingredient, 1-[2-(4-(3-trifluoromethyl-phenyl)piperazin-1-yl)ethyl]-2,3-dihydro-1H-benzimidazol-2-one]
